Laboratory results reported in paper PMC10049421, “Anticancer Activity of Sunitinib Analogues in Human Pancreatic Cancer Cell Cultures under Normoxia and Hypoxia” (International Journal of Molecular Sciences, 2023).
Values belong to the molecule of their own block, whether it stands above or below them.

What was measured:
[1] = test system: MIA PaCa-2 and PANC-1 cells; experiment: MTT cell viability, both pancreatic cancer cell lines; assay type: cell-based, human; conditions: for reduction of viability compared to sunitinib / reduction of cell viability: 1 µM; for reduction of viability compared to sunitinib: 72 h, both cancer cell lines; for reduction of cell viability: 72 h of incubation, at least one cell line; for activity on cell viability, hypoxia compared with normoxia: EC50 comparison; for activity on cell viability, comparison between cell lines: EC50 comparison MIA PaCa-2 vs PANC-1
Protocol: (§1) Cell viability was tested using MTT (3-(4,5-dimethylthiazol-2-yl)-2,5-diphenyltetrazolium bromide; Sigma-Aldrich Co.) assay, as described previously Briefly, MIA PaCa-2 and PANC-1 cells were seeded in 96-well plates (Corning, NY, USA) in a volume of 100 μL (4000 cells/well). After 24 h incubation, the cells were treated with sunitinib and its derivatives. Only the medium without cells was used as a positive control, and the medium with 0.5% DMSO (Sigma-Aldrich Co.) served as a negative control. After 72 h the cells were incubated with the 0.5 mg/mL of MTT solution for the next 4 h. The coloured formazan product was dissolved in 100 μL DMSO. The absorbance was measured spectrophotometrically at wavelengths 570 and 630 nm. […] When determining the EC50 values of the compounds under hypoxic conditions, the growth medium was supplemented with 100 µM of CoCl2 solution (97%, Alfa Aesar, MA, USA).

MIA PaCa-2 cells [2] = experiment: Clonogenic assay, MIA PaCa-2; assay type: cell-based, human; conditions: for number and area of colonies: MIA PaCa-2, higher concentration (90% of EC50), normoxia and hypoxia
Protocol: (§2) Compound effect on cell colony formation and growth was established by clonogenic assay, as previously published. […] Cells were incubated in a humidified atmosphere containing 5% CO2 at 37 °C and grown for 8 days. After incubation, the cells were rinsed with PBS and fixed with 10% formaldehyde, methanol-free (ThermoFisher Scientific, Waltham, MA, USA) solution for 20 min. Then the cells were rinsed with PBS two more times, and cell colonies were stained with 0.1% aqueous crystal violet solution (Sigma-Aldrich Co.) for 20 min, followed by rinses with sterile deionized water to remove the excess dye. Photos of colonies were taken using the G:BOX gel documentation system (Syngene International Ltd., Bengaluru, India) and Genesys software (Syngene International Ltd.). The number of colonies and their area were calculated using GeneTools colony and cell counting software (Syngene International Ltd.) according to the manufacturer’s instructions. Cell colony area and number in control groups were normalized to 100%. The percentage of drug-treated colony area and number were compared to the control.

PANC-1 cells [3] = experiment: 'Wound healing' migration assay, PANC-1; assay type: cell-based, human; conditions: for inhibition of migration, hypoxia compared with normoxia: PANC-1; for 'wound' area compared to the control: PANC-1, 0.35 μM
Protocol: (§3) Cell migration was tested by the ‘wound’ healing assay, as described elsewhere. Briefly, MIA PaCa-2 and PANC-1 cells were seeded into 24-well plates (Corning). MIA PaCa-2 at a density of 80,000 cells/well and PANC-1 at a density of 60,000 cells/well in 500 μL of medium and incubated in a humidified atmosphere containing 5% CO2 at 37 °C for 1 day. Then the monolayers were scratched with a sterile 100 μL pipette plastic tip in the centre of the well. The old cell medium is aspirated, the wells are rinsed with 400 μL phosphate-buffered saline (PBS, Gibco). […] Photos of ‘wounds’ were taken every 24 h for 3 days and the compound effect was evaluated by measuring the size of the “wound” area. Images were analysed by TScratch software (CSE Lab, Zurich, Switzerland).

MIA PaCa-2 cells [4] = experiment: MTT cell viability assay, MIA PaCa-2; assay type: cell-based, human; conditions: for EC50: Homo sapiens, MIA PaCa-2, 72 h, 72 h, MTT
Protocol: as §1

PANC-1 cells [5] = experiment: MTT cell viability assay, PANC-1; assay type: cell-based, human; conditions: for EC50: Homo sapiens, PANC-1, 72 h, 72 h, MTT
Protocol: as §1

human fibroblasts = experiment: MTT cell viability, human fibroblasts (selectivity); assay type: cell-based
PANC-1 cells [6] = experiment: Clonogenic assay, PANC-1; assay type: cell-based, human; conditions: for PANC-1 cell colony formation (number) compared to the control: 90% of EC50, normoxia; for number and area of colonies: PANC-1, higher concentration (90% of EC50), normoxia and hypoxia
Protocol: as §2

MIA PaCa-2 cells [7] = experiment: 'Wound healing' migration assay, MIA PaCa-2; assay type: cell-based, human; conditions: for inhibition of migration, hypoxia compared with normoxia: MIA PaCa-2
Protocol: as §3

PANC-1 cells [8] = conditions: cited from earlier work
BxPC-3 cell line = conditions: BxPC-3, concentration-dependent; cited from earlier work
Capan-2 cell line = conditions: Capan-2, concentration-dependent; cited from earlier work
PANC-1 cells [9] = test system: PANC-1 cells; parameters: method as in PMID 15202007; conditions: 10 μM; cited from earlier work
PANC-1 cell monolayer = conditions: PANC-1, 1 μM, 24 h; cited from earlier work
[10] = MIA PaCa-2, hypoxia (100 µM CoCl2)
[11] = normoxia, higher concentrations (90% of EC50)

Compound: COc1ccc(C2CC(c3ccc4ccccc4c3)=NN2C2=NC(=O)/C(=C3/C(=O)Nc4ccc(C)cc43)S2)cc1 (stereo not drawn) [EMAC4008]
reduction of viability compared to sunitinib [1]: statistically significantly stronger reduced
reduction of cell viability [1]: 90%
activity on cell viability, hypoxia compared with normoxia [1]: more active against both cell lines under hypoxia conditions
activity on cell viability, comparison between cell lines [1]: more active in the PANC-1 cell line
MIA PaCa-2 cell colony growth, hypoxia compared with normoxia (MIA PaCa-2 cells [2]): stronger effect on the MIA PaCa-2 cell colony growth under hypoxia than normoxia
inhibition of migration, hypoxia compared with normoxia (PANC-1 cells [3]): stronger under hypoxia than normoxia

EC50 (MIA PaCa-2 cells [4]; [10]): 100 ± 13 nM
EC50 (MIA PaCa-2 cells [4]; MIA PaCa-2, normoxia): 113 ± 8 nM
EC50 (PANC-1 cells [5]; PANC-1, hypoxia (100 µM CoCl2)): 80 ± 5 nM
EC50 (PANC-1 cells [5]; PANC-1, normoxia): 98 ± 3 nM
Compound: COc1ccc(C2CC(c3ccc4ccccc4c3)=NN2C2=NC(=O)/C(=C3/C(=O)Nc4ccc(Cl)cc43)S2)cc1 (stereo not drawn) [EMAC4001]
times more active than sunitinib (MIA PaCa-2 cells [4]; MIA PaCa-2, hypoxia): 35 times
times more active than sunitinib (MIA PaCa-2 cells [4]; MIA PaCa-2, normoxia): 24 times
times more active than sunitinib (PANC-1 cells [5]; PANC-1, hypoxia): 47 times
times more active than sunitinib (PANC-1 cells [5]; PANC-1, normoxia): 36 times
selectivity towards cancer cells compared to human fibroblasts (human fibroblasts; MIA PaCa-2 and PANC-1 vs fibroblasts): most selective compound
reduction of viability compared to sunitinib [1]: statistically significantly stronger reduced
reduction of cell viability [1]: 90%
activity on cell viability, comparison between cell lines [1]: more active in the PANC-1 cell line
MIA PaCa-2 cell colony growth, hypoxia compared with normoxia (MIA PaCa-2 cells [2]): stronger effect on the MIA PaCa-2 cell colony growth under hypoxia than normoxia
MIA PaCa-2 cell colony formation (MIA PaCa-2 cells [2]; 90% of EC50, normoxia): statistically significantly inhibited
number and size of cell colonies compared to sunitinib (MIA PaCa-2 cells [2]; MIA PaCa-2, 90% of EC50, normoxia and hypoxia): less of MIA PaCa-2 and PANC-1 cell colonies and they were smaller
number and area of colonies (MIA PaCa-2 cells [2]): significantly reduced the number and area of colonies
PANC-1 cell colony formation (number) compared to the control (PANC-1 cells [6]): inhibited the colony formation of PANC-1 cells
number and size of cell colonies compared to sunitinib (PANC-1 cells [6]; PANC-1, 90% of EC50, normoxia and hypoxia): less of MIA PaCa-2 and PANC-1 cell colonies and they were smaller
number and area of colonies (PANC-1 cells [6]): significantly reduced the number and area of colonies
inhibition of migration, hypoxia compared with normoxia (MIA PaCa-2 cells [7]): more than in normoxia
cell migration (MIA PaCa-2 cells [7]; [11]): inhibited cell migration
inhibition of migration, hypoxia compared with normoxia (PANC-1 cells [3]): the effect was the opposite

Compound: Cc1nc(Nc2ncc(C(=O)Nc3c(C)cccc3Cl)s2)cc(N2CCN(CCO)CC2)n1 [Dasatinib]
number of PANC-1 cell colonies (PANC-1 cells [8]; 10 μM): significantly reduced

Compound: COc1ccc(C2CC(c3cccs3)=NN2C2=NC(=O)/C(=C3/C(=O)Nc4ccc(I)cc43)S2)cc1 (stereo not drawn) [EMAC4017]
reduction of viability compared to sunitinib [1]: statistically significantly stronger reduced
reduction of cell viability [1]: 90%
MIA PaCa-2 cell colony growth, hypoxia compared with normoxia (MIA PaCa-2 cells [2]): stronger effect on the MIA PaCa-2 cell colony growth under hypoxia than normoxia
MIA PaCa-2 cell colony formation (MIA PaCa-2 cells [2]; hypoxia): significantly reduced the MIA PaCa-2 cell colony formation
MIA PaCa-2 colony number compared to sunitinib (MIA PaCa-2 cells [2]; lower concentration (10% of EC50), hypoxia): stronger than sunitinib
inhibition of migration, hypoxia compared with normoxia (MIA PaCa-2 cells [7]): less than under normoxia
inhibition of migration, hypoxia compared with normoxia (PANC-1 cells [3]): stronger under hypoxia than normoxia

Compound: COc1ccc(C2CC(c3ccc4ccccc4c3)=NN2C2=NC(=O)/C(=C3/C(=O)Nc4ccc(C(F)(F)F)cc43)S2)cc1 (stereo not drawn) [EMAC4009]
effect on viability of non-cancerous cells (human fibroblasts) (human fibroblasts): significantly reduce the viability of non-cancerous cells
reduction of viability compared to sunitinib [1]: statistically significantly stronger reduced
reduction of cell viability [1]: 90%

Compound: CN(C)C/C=C/C(=O)Nc1cc2c(Nc3ccc(F)c(Cl)c3)ncnc2cc1O[C@H]1CCOC1 [Afatinib]
cell colony formation (PANC-1 cells [8]; PANC-1, 0.25 to 2 μM): did not show an effect
cell colony formation (BxPC-3 cell line): inhibited cell colony formation
cell colony formation (Capan-2 cell line): inhibited cell colony formation

Compound: COc1ccc(C2CC(c3ccc4ccccc4c3)=NN2C2=NC(=O)/C(=C3/C(=O)Nc4ccc(OC)cc43)S2)cc1 (stereo not drawn) [EMAC4007]
effect on viability of non-cancerous cells (human fibroblasts) (human fibroblasts): significantly reduce the viability of non-cancerous cells
reduction of viability compared to sunitinib [1]: statistically significantly stronger reduced
reduction of cell viability [1]: 90%

Compound: COc1cc2ncnc(Nc3ccc(F)c(Cl)c3)c2cc1OCCCN1CCOCC1 [Gefitinib]
reduction of viability of PANC-1 cells (PANC-1 cells [9]): 78%

EC50 (MIA PaCa-2 cells [4]; [10]): 3500 ± 300 nM
EC50 (MIA PaCa-2 cells [4]; MIA PaCa-2, normoxia): 2670 ± 210 nM
EC50 (PANC-1 cells [5]; PANC-1, hypoxia (100 µM CoCl2)): 3730 ± 210 nM
EC50 (PANC-1 cells [5]; PANC-1, normoxia): 3530 ± 210 nM
Compound: CCN(CC)CCNC(=O)c1c(C)[nH]c(/C=C2\C(=O)Nc3ccc(F)cc32)c1C [sunitinib, Sunitinib malate]
decrease of PANC-1 cell viability (PANC-1 cells [5]; 3.5 μM): up to 50%
activity on cell viability, hypoxia compared with normoxia [1]: more active under normoxia than hypoxia conditions
activity on cell viability, comparison between cell lines [1]: inhibited more efficiently the cell viability of the MIA PaCa-2 cell line
MIA PaCa-2 cell colony formation (MIA PaCa-2 cells [2]; 90% of EC50, normoxia): statistically significantly inhibited
number and area of colonies (MIA PaCa-2 cells [2]): significantly reduced the number and area of colonies
number and area of colonies (PANC-1 cells [6]): significantly reduced the number and area of colonies
inhibition of migration, hypoxia compared with normoxia (MIA PaCa-2 cells [7]): more under hypoxic conditions
cell migration (MIA PaCa-2 cells [7]; MIA PaCa-2, 10 and 90% of EC50, normoxia and hypoxia (except lower concentration under normoxia)): statistically significantly inhibited cell migration
inhibition of migration, hypoxia compared with normoxia (PANC-1 cells [3]): more under hypoxic conditions
'wound' area compared to the control (PANC-1 cells [3]; 24 h): no difference
'wound' area compared to the control (PANC-1 cells [3]; 48 h and 72 h): significantly larger
cell migration (PANC-1 cells [3]; PANC-1, 10 and 90% of EC50, normoxia and hypoxia): statistically significantly inhibited cell migration
'wound' area (PANC-1 cells [3]; PANC-1 monolayer, hypoxia, after 72 h): 68.81 ± 5.24%
change in 'wound' area compared to the control (PANC-1 cell monolayer): did not establish a significant difference

Compound: COc1ccc(C2CC(c3ccc4ccccc4c3)=NN2C2=NC(=O)/C(=C3/C(=O)Nc4ccc(I)cc43)S2)cc1 (stereo not drawn) [EMAC4006]
reduction of viability compared to sunitinib [1]: statistically significantly stronger reduced
reduction of cell viability [1]: 90%
activity on cell viability, comparison between cell lines [1]: inhibited more efficiently the cell viability of the MIA PaCa-2 cell line
MIA PaCa-2 cell colony formation (MIA PaCa-2 cells [2]; 90% of EC50, normoxia): statistically significantly inhibited
PANC-1 cell colony formation (number) compared to the control (PANC-1 cells [6]): inhibited the colony formation of PANC-1 cells
inhibition of migration, hypoxia compared with normoxia (MIA PaCa-2 cells [7]): less than under normoxia
cell migration (MIA PaCa-2 cells [7]; [11]): inhibited cell migration
inhibition of migration, hypoxia compared with normoxia (PANC-1 cells [3]): stronger under hypoxia than normoxia
